Measured values: ChEMBL document CHEMBL1148635, “Discovery, structure-activity relationship, and pharmacological evaluation of (5-substituted-pyrrolidinyl-2-carbonyl)-2-cyanopyrrolidines as potent dipeptidyl peptidase IV inhibitors” (J Med Chem, 2006)

Tests used:
[1] = Half life in phosphate buffer at pH 7.4 at 37 degreeC; format: ADME
Dipeptidyl peptidase 4 [2] = target: T1, Dipeptidyl peptidase 4 (Homo sapiens, UniProt P27487); test: Inhibition of human recombinant DPP4 by tight-binding assay in presence of 10% rat plasma; format: cell-free
Dipeptidyl peptidase 4 [3] = target: T1, Dipeptidyl peptidase 4; test: Inhibition of human recombinant DPP4 by tight-binding assay
Dipeptidyl peptidase 4 [4] = target: T1, Dipeptidyl peptidase 4; test: Inhibition of human recombinant DPP4
[5] = Volume of distribution in Sprague-Dawley rat at 5 mg/kg; format: ADME, organism-based; set-up: dose 5 mg/kg; details: in vivo, read-out: Vdss
[6] = Half life in Sprague-Dawley rat at 5 mg/kg, po; format: ADME, organism-based; set-up: dose 5 mg/kg, route oral; details: in vivo
[7] = Oral bioavailability in Sprague-Dawley rat at 5 mg/kg; format: ADME, organism-based; details: in vivo
Rattus norvegicus [8] = test: AUC in Sprague-Dawley rat at 5 mg/kg, po; format: ADME, organism-based, Plasma; set-up: dose 5 mg/kg, route oral; details: in vivo
[9] = Plasma clearance in Sprague-Dawley rat at 5 mg/kg, iv; format: ADME, organism-based; set-up: dose 5 mg/kg, route intravenous
[10] = Cmax in Sprague-Dawley rat at 5 mg/kg, po; format: ADME, organism-based; set-up: dose 5 mg/kg, route oral; details: in vivo
Dipeptidyl peptidase 2 = Dipeptidyl peptidase 2 (Homo sapiens, UniProt Q9UHL4); test: Inhibition of DPP7 by tight-binding assay
Prolyl endopeptidase = target: T2, Prolyl endopeptidase (Homo sapiens, UniProt P48147); test: Inhibition of POP by tight-binding assay
T2 sequence (P48147 whole entry): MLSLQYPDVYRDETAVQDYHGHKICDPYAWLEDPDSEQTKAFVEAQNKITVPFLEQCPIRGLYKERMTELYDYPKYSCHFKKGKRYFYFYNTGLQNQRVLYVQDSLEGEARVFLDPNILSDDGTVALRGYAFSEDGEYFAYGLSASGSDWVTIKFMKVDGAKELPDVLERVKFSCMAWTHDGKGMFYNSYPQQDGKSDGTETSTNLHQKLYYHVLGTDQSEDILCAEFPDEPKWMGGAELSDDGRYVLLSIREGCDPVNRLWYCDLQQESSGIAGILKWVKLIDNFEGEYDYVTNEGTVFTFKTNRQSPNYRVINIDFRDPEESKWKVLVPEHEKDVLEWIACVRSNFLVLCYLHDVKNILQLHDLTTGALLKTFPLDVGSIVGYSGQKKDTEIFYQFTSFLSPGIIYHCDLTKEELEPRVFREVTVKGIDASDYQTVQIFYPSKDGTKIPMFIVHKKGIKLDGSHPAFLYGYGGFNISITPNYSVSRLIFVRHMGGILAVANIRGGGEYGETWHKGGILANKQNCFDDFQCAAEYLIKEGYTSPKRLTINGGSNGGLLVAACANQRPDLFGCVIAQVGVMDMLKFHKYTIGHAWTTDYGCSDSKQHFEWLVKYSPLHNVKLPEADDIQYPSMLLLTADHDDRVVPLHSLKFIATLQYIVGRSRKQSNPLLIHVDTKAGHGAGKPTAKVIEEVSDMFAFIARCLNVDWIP

Rattus norvegicus [11] = test: Lowering of blood glucose level in ZDF rat at 3 mg/kg, po by oral glucose tolerance test; format: functional
Rattus norvegicus [12] = test: Lowering of blood glucose level in ZDF rat at 1 mg/kg, po by oral glucose tolerance test; format: functional
Rattus norvegicus [13] = test: Lowering of blood glucose level in ZDF rat at 0.1 mg/kg, po by oral glucose tolerance test; format: functional

T1 sequence (P27487 whole entry): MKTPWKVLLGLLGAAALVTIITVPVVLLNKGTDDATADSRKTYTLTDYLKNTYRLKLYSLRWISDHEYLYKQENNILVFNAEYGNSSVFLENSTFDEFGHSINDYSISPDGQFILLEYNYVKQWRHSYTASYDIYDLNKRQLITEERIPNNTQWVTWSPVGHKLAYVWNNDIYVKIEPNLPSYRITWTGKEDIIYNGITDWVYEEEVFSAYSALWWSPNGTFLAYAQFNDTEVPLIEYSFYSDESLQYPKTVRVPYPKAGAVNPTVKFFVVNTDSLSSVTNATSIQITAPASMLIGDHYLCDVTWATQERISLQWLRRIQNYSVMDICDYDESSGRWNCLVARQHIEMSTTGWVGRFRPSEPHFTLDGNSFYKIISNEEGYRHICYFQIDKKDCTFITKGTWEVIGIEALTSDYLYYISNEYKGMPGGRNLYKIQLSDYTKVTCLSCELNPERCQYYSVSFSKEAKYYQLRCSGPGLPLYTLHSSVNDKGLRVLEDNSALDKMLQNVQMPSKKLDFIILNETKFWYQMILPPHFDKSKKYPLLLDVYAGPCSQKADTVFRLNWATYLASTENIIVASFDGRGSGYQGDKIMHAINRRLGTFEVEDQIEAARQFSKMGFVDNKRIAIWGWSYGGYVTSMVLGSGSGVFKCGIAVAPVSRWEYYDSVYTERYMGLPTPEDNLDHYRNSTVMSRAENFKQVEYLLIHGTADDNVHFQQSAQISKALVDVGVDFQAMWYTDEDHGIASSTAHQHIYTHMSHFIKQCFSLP

half-life [1]	Vd [5]	half-life [6]	bioavailability [7]	AUC (Rattus norvegicus [8])	clearance [9]	Cmax [10]	Structure (SMILES)	further results
984 min							CC[C@H]1CC[C@@H](C(=O)N2CCC[C@H]2C#N)N1	
							N#C[C@@H]1CCCN1C(=O)[C@@H]1CC[C@H](COc2ccccc2Cc2ccccc2)N1	Ki (Dipeptidyl peptidase 4 [2]): Not Active; Ki (Dipeptidyl peptidase 4 [3]): Not Active; Ki (Dipeptidyl peptidase 4 [4]): > 3 µM
1000 min	0.2 L/kg	90 min	39%	3140 ng·h/mL	10.5 mL/min/kg	4540 ng/mL	N#Cc1ccc(OC[C@H]2CC[C@@H](C(=O)N3CCC[C@H]3C#N)N2)c(Cl)c1	
2470 min	1.14 L/kg	78 min	3%	28 ng·h/mL	85 mL/min/kg	25.2 ng/mL	CC(C)(C)c1ccccc1OC[C@H]1CC[C@@H](C(=O)N2CCC[C@H]2C#N)N1	
390 min	13.5 L/kg	66 min	58%	652 ng·h/mL	74.8 mL/min/kg	752 ng/mL	C[C@H]1CC[C@@H](C(=O)N2CCC[C@H]2C#N)N1	
							N#C[C@@H]1CCCN1C(=O)[C@@H]1CC[C@H](COc2ccccc2Cl)N1	Ki (Prolyl endopeptidase): 2760 nM
648 min							N#C[C@@H]1CCCN1C(=O)[C@@H]1CC[C@H](COc2ccc3ccccc3c2)N1	
	0.22 L/kg	216 min	13.5%	2990 ng·h/mL	3.83 mL/min/kg	805 ng/mL	N#C[C@@H]1CCCN1C(=O)[C@@H]1CC[C@H](COc2cc([N+](=O)[O-])c(Cl)cc2Cl)N1	
1190 min							N#C[C@@H]1CCCN1C(=O)[C@@H]1CC[C@H](COc2ccc(C(=O)O)cc2Cl)N1	Ki (Prolyl endopeptidase): 1740 nM
468 min							N#C[C@@H]1CCCN1C(=O)[C@@H]1CC[C@H](COc2ccc(Br)cc2)N1	
78 min							N#C[C@@H]1CCCN1C(=O)[C@@H]1CCCN1	
3920 min	1 L/kg	252 min	63%	9630 ng·h/mL	5.33 mL/min/kg	5580 ng/mL	CC(C)(C)c1cc(C(=O)O)ccc1OC[C@H]1CC[C@@H](C(=O)N2CCC[C@H]2C#N)N1	
							N#C[C@@H]1CCCN1C(=O)[C@@H]1CC[C@H](COc2cc(C(=O)O)c[n+]([O-])c2Cl)N1	Ki (Dipeptidyl peptidase 2): > 3 µM; Ki (Prolyl endopeptidase): 1530 nM
	0.3 L/kg	132 min	40%	2920 ng·h/mL	14 mL/min/kg	3730 ng/mL	CS(=O)(=O)c1ccc(OC[C@H]2CC[C@@H](C(=O)N3CCC[C@H]3C#N)N2)c(Br)c1	
	0.73 L/kg	210 min	34%	4110 ng·h/mL	7 mL/min/kg	2470 ng/mL	CC(C)c1cc(C(=O)O)ccc1OC[C@H]1CC[C@@H](C(=O)N2CCC[C@H]2C#N)N1	Activity (Rattus norvegicus [11]): 30%; Activity (Rattus norvegicus [12]): 17%; Activity (Rattus norvegicus [13]): 3%; Ki (Dipeptidyl peptidase 2): > 3 µM
> 6000 min							CC(C)[C@H]1CC[C@@H](C(=O)N2CCC[C@H]2C#N)N1 (mixture of isomers)	
> 6000 min	0.35 L/kg	414 min	7%	1280 ng·h/mL	4.83 mL/min/kg	146 ng/mL	N#C[C@@H]1CCCN1C(=O)[C@@H]1CC[C@H](COc2cc(C(=O)O)ccc2Cl)N1 (mixture of isomers)	Ki (Dipeptidyl peptidase 2): > 3 µM

Structure (SMILES)	half-life [1]	Vd [5]	half-life [6]	bioavailability [7]	AUC (Rattus norvegicus [8])	clearance [9]	Cmax [10]	further results
N#C[C@@H]1CCCN1C(=O)[C@@H]1CC[C@H](COc2cc(C(=O)O)cnc2Cl)N1		0.35 L/kg	72 min	2%	87 ng·h/mL	16 mL/min/kg	29 ng/mL	Ki (Dipeptidyl peptidase 2): > 3 µM; Ki (Prolyl endopeptidase): 666 nM
